Experimental data as given in ChEMBL document CHEMBL1159078, “Bicyclic peptides as potent inhibitors of histone deacetylases: optimization of alkyl loop length” (Bioorg Med Chem Lett, 2010).
Where a SMILES comes first, the peptide text is derived from it. [ ]: non-standard residue; d: D form. The star is where a group is joined. Asu = N[C@@H](CCCCCC(=O)O)C(=O)O; dAhp(2) = CCCCC[C@@H](N)C(=O)O; Ahp(2) = CCCCC[C@H](N)C(=O)O; NHOH = ON*

What was measured:
[1] = biological target: T1, Protein deacetylase HDAC6 (Homo sapiens, UniProt Q9UBN7); assay: Inhibition of HDAC6
T1 sequence (Q9UBN7 whole entry): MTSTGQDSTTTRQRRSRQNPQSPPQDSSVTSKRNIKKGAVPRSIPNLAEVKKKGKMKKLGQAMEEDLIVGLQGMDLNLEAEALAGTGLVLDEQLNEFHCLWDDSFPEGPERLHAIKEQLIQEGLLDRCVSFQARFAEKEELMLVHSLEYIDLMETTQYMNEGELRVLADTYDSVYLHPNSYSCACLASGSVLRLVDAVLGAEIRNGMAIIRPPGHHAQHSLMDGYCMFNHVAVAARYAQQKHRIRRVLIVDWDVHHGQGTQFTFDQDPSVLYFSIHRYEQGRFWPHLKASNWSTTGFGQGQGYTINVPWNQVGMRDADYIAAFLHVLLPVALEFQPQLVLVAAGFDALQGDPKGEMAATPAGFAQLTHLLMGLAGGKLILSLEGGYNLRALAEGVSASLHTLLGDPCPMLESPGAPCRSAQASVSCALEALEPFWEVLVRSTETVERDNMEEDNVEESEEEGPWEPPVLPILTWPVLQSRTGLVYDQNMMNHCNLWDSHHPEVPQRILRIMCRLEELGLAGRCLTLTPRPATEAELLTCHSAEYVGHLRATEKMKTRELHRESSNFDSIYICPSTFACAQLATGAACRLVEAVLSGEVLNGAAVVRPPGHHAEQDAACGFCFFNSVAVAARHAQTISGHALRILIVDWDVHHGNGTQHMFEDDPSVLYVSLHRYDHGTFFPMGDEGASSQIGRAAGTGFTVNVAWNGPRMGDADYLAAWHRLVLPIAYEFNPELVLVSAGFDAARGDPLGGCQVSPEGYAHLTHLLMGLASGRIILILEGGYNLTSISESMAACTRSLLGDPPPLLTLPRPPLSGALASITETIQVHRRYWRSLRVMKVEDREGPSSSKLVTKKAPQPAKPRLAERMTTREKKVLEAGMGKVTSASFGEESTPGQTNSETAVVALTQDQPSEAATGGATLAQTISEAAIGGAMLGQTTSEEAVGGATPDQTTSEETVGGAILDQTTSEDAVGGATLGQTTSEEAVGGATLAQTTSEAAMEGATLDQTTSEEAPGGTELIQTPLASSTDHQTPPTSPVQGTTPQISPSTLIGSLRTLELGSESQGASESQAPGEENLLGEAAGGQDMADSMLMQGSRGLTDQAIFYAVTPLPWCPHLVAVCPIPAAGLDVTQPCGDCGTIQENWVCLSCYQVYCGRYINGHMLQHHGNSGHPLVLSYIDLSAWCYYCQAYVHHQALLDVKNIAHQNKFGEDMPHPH

Histone deacetylase 4 [2] = biological target: T2, Histone deacetylase 4 (Homo sapiens, UniProt P56524); assay: Inhibition of HDAC4
Histone deacetylase 4 [3] = biological target: T2, Histone deacetylase 4
Histone deacetylase 1 = Histone deacetylase 1 (Homo sapiens, UniProt Q13547); assay: Inhibition of HDAC1
[4] = Selectivity ratio, IC50 for HDAC6 to IC50 for HDAC4

Sequence of Histone deacetylase 1 (Q13547 whole entry): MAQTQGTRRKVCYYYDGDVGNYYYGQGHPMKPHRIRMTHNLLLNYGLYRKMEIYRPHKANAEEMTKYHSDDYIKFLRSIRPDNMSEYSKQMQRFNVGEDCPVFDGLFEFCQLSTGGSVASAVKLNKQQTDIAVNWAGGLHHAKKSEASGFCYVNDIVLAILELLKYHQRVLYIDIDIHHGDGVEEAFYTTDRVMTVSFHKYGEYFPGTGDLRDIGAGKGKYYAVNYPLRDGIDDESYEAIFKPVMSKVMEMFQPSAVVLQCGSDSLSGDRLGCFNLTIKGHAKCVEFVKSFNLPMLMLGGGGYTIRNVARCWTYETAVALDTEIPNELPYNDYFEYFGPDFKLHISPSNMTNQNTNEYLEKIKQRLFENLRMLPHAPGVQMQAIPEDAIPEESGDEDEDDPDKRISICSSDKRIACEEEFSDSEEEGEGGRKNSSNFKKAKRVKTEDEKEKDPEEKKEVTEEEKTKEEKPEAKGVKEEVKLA
T2 sequence (P56524 whole entry): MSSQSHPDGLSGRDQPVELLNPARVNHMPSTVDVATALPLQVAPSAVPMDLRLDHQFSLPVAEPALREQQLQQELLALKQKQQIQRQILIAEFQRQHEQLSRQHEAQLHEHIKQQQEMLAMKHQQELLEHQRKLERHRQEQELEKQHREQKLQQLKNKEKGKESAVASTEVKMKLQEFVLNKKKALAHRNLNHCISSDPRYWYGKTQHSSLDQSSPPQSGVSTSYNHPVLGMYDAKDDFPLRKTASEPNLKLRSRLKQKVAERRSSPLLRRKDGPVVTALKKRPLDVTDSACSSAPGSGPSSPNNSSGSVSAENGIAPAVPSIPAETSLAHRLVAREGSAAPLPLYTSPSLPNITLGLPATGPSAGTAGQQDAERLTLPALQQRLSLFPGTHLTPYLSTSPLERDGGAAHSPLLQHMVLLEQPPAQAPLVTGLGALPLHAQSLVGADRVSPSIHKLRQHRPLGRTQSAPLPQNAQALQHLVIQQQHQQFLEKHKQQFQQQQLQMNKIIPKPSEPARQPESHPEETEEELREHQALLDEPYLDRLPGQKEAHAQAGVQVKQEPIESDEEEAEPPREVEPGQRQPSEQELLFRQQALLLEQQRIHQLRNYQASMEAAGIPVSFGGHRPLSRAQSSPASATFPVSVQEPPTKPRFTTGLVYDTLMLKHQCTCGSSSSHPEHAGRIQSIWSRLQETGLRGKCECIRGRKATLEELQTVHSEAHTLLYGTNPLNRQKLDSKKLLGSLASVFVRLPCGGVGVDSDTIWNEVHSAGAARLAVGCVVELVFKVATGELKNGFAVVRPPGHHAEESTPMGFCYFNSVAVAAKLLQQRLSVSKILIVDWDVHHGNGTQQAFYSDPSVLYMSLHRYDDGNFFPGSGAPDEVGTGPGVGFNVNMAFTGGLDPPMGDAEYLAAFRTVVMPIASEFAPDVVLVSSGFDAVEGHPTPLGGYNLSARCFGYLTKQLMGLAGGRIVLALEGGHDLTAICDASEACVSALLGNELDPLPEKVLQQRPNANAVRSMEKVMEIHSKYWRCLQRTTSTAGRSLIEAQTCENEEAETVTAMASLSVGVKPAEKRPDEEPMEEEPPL

SMILES	IC50 [1] [µM]	IC50 (Histone deacetylase 4 [2]) [µM]	EC1000 (Histone deacetylase 4 [3]) [nM]	IC50 (Histone deacetylase 1) [µM]	Ratio IC50 [4]
O=C(CCCCC[C@@H]1NC(=O)[C@H]2CCCN2C(=O)[C@@H]2CCCCCCCCC[C@@H](NC1=O)C(=O)N2)NO	0.33	0.0054	92	0.0091	–
CC(/C=C/C(=O)NO)=C\[C@@H](C)C(=O)c1ccc(N(C)C)cc1	–	–	20	–	–
O=C(CCCCC[C@@H]1NC(=O)[C@H]2CCCN2C(=O)[C@@H]2CCCCCCCCCC[C@@H](NC1=O)C(=O)N2)NO	0.41	0.0055	7.2	0.0091	75
CCCCC[C@@H]1NC(=O)[C@@H](CCCCC)NC(=O)[C@H](CCCCCC(=O)NO)NC(=O)[C@H]2CCCN2C1=O (cyclo([Ahp(2)][dP][Asu](NHOH)[dAhp(2)]))	0.34	0.012	13	0.025	–
O=C(CCCCC[C@@H]1NC(=O)[C@H]2CCCN2C(=O)[C@@H]2CCCCCCCCCCC[C@@H](NC1=O)C(=O)N2)NO	0.28	0.0045	2.6	0.011	–
O=C(CCCCC[C@@H]1NC(=O)[C@H]2CCCN2C(=O)[C@@H]2CCCCCCCCCCCC[C@@H](NC1=O)C(=O)N2)NO	0.24	0.005	2	0.013	–
